Measurements: US11723886B2, “Targeting ocular diseases with novel APE1/Ref-1 inhibitors” (Indiana University Research and Technology Corporation, priority 2018, dated 2023)

Key:
Rf/6a cells [1] = test: Scratch wound cell migration assay, Rf/6a; assay type: cell-based, macaque
Procedure: (§1) In vitro cell migration assay. Endothelial cell migration was monitored as described before (Basavarajappa et al., PLoS One 9:e95694 (2014); Basavarajappa et al., EMBO Mol Med 9:786-801 (2017)). Briefly, HRECs and Rf/6a were grown until confluency in 12-well plates. Using a sterile 10-μL micropipette tip, a scratch wound was made across the center of each well and fresh complete media containing DMSO or different concentrations of APX2009 or APX2014 compounds were added to the wells (DMSO final concentration=1%). Wells were imaged via digital brightfield microscopy at different time points, and the number of migrated cells into the scratched area was manually counted.

[2] = test system: murine choroidal explants; test: Ex vivo choroidal sprouting assay; assay type: cell-based, mouse; conditions: for reduction of choroidal sprouting compared to control: 48 hours
Description: Animals. All animal experiments were approved by the Indiana University School of Medicine Institutional Animal Care and Use Committee and followed the guidelines of the Association for Research in Vision and Ophthalmology Statement for the Use of Animals in Ophthalmic and Visual Research. Wild-type female C57BL/6 mice, 6-8 weeks of age, were purchased from Envigo (Indianapolis, Ind.; for choroidal sprouting experiments) or Jackson Laboratory (Bar Harbor, Me.; for L-CNV) and housed under standard conditions (Wenzel et al., Mol Vis 21:515-522 (2015)). Mice were anesthetized for all procedures by intraperitoneal injections of 90 mg/kg ketamine hydrochloride and 5 mg/kg xylazine, with intraperitoneal atipamezole reversal (1 mg/kg). Treatments were randomly assigned by cage.
Choroidal sprouting assay. Ex vivo Choroidal sprouting was assessed as described previously (Sulaiman et al., Sci Rep 6:25509 (2016); Basavarajappa et al., EMBO Mol Med 9:786-801 (2017)). Briefly, choroid-sclera was dissected from 7 to 8 week old mouse eyes and pieces were embedded in Matrigel (growth factor reduced) and grown in EGM-2 medium containing antibiotics for 72 hours to allow sprouting to initiate. The indicated concentrations of APX2009 and APX2014 compounds (in DMSO, final DMSO concentration 0.5 and 0.2%, respectively) were added and growth allowed to proceed for 48 hours Images were taken and growth was quantified by measuring the distance from the edge of the choroidal piece to the growth front in four directions per sample using ImageJ software.

[3] = test system: human retinal microvascular endothelial cells (HRECs); test: In vitro cell proliferation assay (alamarBlue), HRECs; assay type: cell-based; conditions: HREC, read-out: GI50 (median growth inhibition), HRECs
Procedure: (§2) Cells. Primary human retinal microvascular endothelial cells (HRECs) were obtained from Cell Systems, Inc. (Kirkland, Wash.), while the Rf/6a macacque choroidal endothelial cell line was obtained from ATCC (Manassas, Va.). Cells were maintained as described (Basavarajappa et al., EMBO Mol Med 9:786-801 (2017)), re-ordered at least annually, and regularly assessed for mycoplasma contamination.
(§3) In vitro cell proliferation assay. Endothelial cell proliferation was measured as described previously (Basavarajappa et al., PLoS One 9:e95694 (2014); Basavarajappa et al., EMBO Mol Med 9:786-801 (2017)). Briefly, 2.5×10^3 cells were seeded in 100 μL of growth medium and plated in each well of 96-well clear-bottom black plates and incubated for 24 hours. APX2009, APX2014, or DMSO vehicle (DMSO final concentration=1%) was added, and the plates were incubated for 24-48 hours in 100 μL complete medium at 37° C. and 5% CO2. AlamarBlue reagent (11.1 μL) was added to each well of the plate and 4 hours later fluorescence readings were taken at excitation and emission wavelengths of 560 nm and 590 nm, respectively, using a Synergy H1 plate reader (BioTek, Winooski, Vt.). GI50 was calculated using GraphPad Prism v. 7.0.

HRECs [4] = test: Matrigel tube formation assay, HRECs; assay type: cell-based, human; conditions: mid nanomolar concentrations, vs control
Procedure: (§4) In vitro Matrigel tube formation assay. The ability of HRECs and Rf/6a cells to form tubes in vitro was monitored as described before (Basavarajappa et al., PLoS One 9:e95694 (2014); Basavarajappa et al., EMBO Mol Med 9:786-801 (2017)). Briefly, cells were treated with the indicated concentrations of APX2009 or APX2014 compounds or DMSO for 48 hours and then 1.5×10^4 cells in 100 μL of growth medium containing DMSO or APX compounds were added to each well of a 96-well plate that was pre-coated with 50 μL of Matrigel basement membrane (DMSO final concentration=1%). Digital photographs of each well at different time points were taken to measure the in vitro tube formation using the Angiogenesis Analyzer plugin in ImageJ software (v.1.48; http://image.bio.methods.free.fr/ImageJ/?Angiogenesis-Analyzer-for-ImageJ.html).

HRECs [5] = test: Scratch wound cell migration assay, HRECs; assay type: cell-based, human
Procedure: as §1

[6] = test system: Rf/6a macaque choroidal endothelial cells; test: In vitro cell proliferation assay (alamarBlue), Rf/6a; assay type: cell-based; conditions: Macaca mulatta, Rf/6a choroidal endothelial cells, read-out: GI50 (median growth inhibition), Rf/6a
Procedure: as §2, §3

Rf/6a cells [7] = test: Matrigel tube formation assay, Rf/6a; assay type: cell-based, macaque; conditions: mid nanomolar concentrations, vs control
Procedure: as §4

NF-κB p65 = NF-κB p65 nuclear translocation assay in TNF-α stimulated HRECs; assay type: cell-based, human; conditions: 10 ng/ml TNF-α
Procedure: NF-κB p65 nuclear translocation assay. The NF-κB nuclear translocation assay was performed by seeding 30,000 HRECs/well on an 8-well chamber slide coated with attachment factors. The cells were grown in EGM-2 medium overnight before treating with indicated concentrations of APX2009 and APX2014, or 10 μM BAY 11-7082 (Sigma, St. Louis, Mo.) as a positive control NF-κB inhibitor. After 17 hours incubation, the media was replaced with EBM-2 (minimal medium) with indicated concentrations of compound or DMSO for 1 hour. The cells were then stimulated with 10 ng/ml TNF-α in EBM-2 for 20 minutes at 37° C. to activate NF-κB. Cells were then fixed in 4% paraformaldehyde and permeabilized using 0.5% Triton X-100 solution prepared in PBS. The cells were incubated with a monoclonal antibody against NF-κB p65 (sc-8008; Santa Cruz, Santa Cruz, Calif.) (1:50) overnight at 4° C., followed by Alexafluor 555 goat anti-mouse secondary antibody (1:2000) for one hour. The cells were counter-stained with Hoechst 33342 for nuclear staining and then mounted using Everbrite hardset mounting medium. The cells were imaged using a Zeiss AxioImager D2 microscope.

Compound	cell migration in scratch wound assay, Rf/6a (Rf/6a cells [1])	reduction of choroidal sprouting compared to control ([2]; at 10 μM)	concentrations inhibiting choroidal sprouting ex vivo [2]	GI50 [3]	ability to form tubes, HRECs (HRECs [4])	cell migration in scratch wound assay, HRECs (HRECs [5])	GI50 [6]	ability to form tubes, Rf/6a (Rf/6a cells [7])	translocation of p65 into the nucleus in response to TNF-α (NF-κB p65)	reduction of choroidal sprouting compared to control ([2]; at 1 μM (highest concentration tested))
CCC/C(=C\C1=C(OC)C(=O)c2ccccc2C1=O)C(=O)N(CC)CC [APX2009, (2E)-2-[(3-methoxy-1,4-dioxo-1,4-dihydronaphthalen-2-yl)methylidene]-N,N-diethylpentanamide]	significantly inhibited	~70%	low micromolar	1.1 µM	significantly reduced	significantly inhibited	26 µM	significantly reduced	dose-dependently attenuated	
CCC/C(=C\C1=C(OC)C(=O)c2ccccc2C1=O)C(=O)NOC [APX2014, (2E)-2-[(3-methoxy-1,4-dioxo-1,4-dihydronapthalen-2-yl)methylidene]-N-methoxypentanamide]	significantly inhibited		high nanomolar	0.11 µM	significantly reduced	significantly inhibited	5 µM	significantly reduced	dose-dependently attenuated	~60%
